Experimental data from a compilation of properties of binary mixtures (doi:10.1016/j.molliq.2022.120052).

Assay: xn = mol fraction of the nth substance listed
Details: 100 kPa

C[n+]1ccn(CCCC#N)c1.O=S(=O)([O-])C(F)(F)F + O=C1CCCO1
electrical conductivity [S/m]
Details	x1 = 0.1003	x1 = 0.2001	x1 = 0.3003	x1 = 0.3999	x1 = 0.4999	x1 = 0.6002	x1 = 0.7001	x1 = 0.8002	x1 = 0.9004	x1 = 1
288.15 K	0.725	0.798	–	0.353	0.261	–	0.118	0.084	0.05	–
293.15 K	0.834	0.906	0.623	0.434	0.318	0.232	0.156	0.11	–	0.034
298.15 K	0.95	1.02	0.726	0.521	0.385	0.283	0.201	0.142	–	0.048
303.15 K	1.07	1.14	0.835	0.617	–	0.341	0.252	–	–	0.064
308.15 K	1.2	1.26	0.951	0.718	0.539	–	0.309	0.221	0.153	–
313.15 K	1.33	1.4	–	0.83	0.625	–	–	0.269	0.19	0.106
318.15 K	1.48	1.53	1.21	0.947	0.721	0.554	0.441	–	–	–
323.15 K	1.61	1.68	–	1.07	0.821	0.642	0.513	–	–	–
328.15 K	1.76	1.83	1.49	1.2	0.927	0.733	0.592	0.449	0.333	0.205
333.15 K	1.91	1.98	1.64	–	1.04	0.832	0.675	0.52	0.392	0.25
338.15 K	2.07	2.14	–	1.46	1.17	0.945	0.761	0.596	0.454	–
343.15 K	2.22	2.3	1.95	1.6	1.29	1.05	–	0.677	0.519	0.355
